The values below come from patent US12138256B2, “Treatment of cardiopulmonary disorders” (Bayer Aktiengesellschaft, priority 2021, dated 2024).

Values joined by “and” are separate entries in the source; they are usually repeats but may differ in a detail not shown here. Identical values can stand only once.

A short description of data set [1]: Protein binding via Transil assay, dog plasma. The class given is in vitro ADME. The note with it: Dog Beagle plasma, Transil assay. From the text: The distribution of a test substance between Transil® (phosphatidylcholine lipid bilayers immobilized on silica beads) and plasma is a characteristic feature of any pharmaceutical compound and is dependent on its extent of binding to plasma proteins. By comparing the distribution between Transil® and buffer with the distribution between Transil® and plasma of any species of interest, the unbound fraction in the plasma of the respective animal species can be calculated in vitro. The respective plasma and buffer concentrations were determined via a radioactivity analysis. A detailed description of the method and its validation was published by Schuhmacher et al. (2).

The subject of data set [2] is thromboxane analog U46619 induced PAH in minipigs. Put plainly: Haemodynamics (PAP, BP) in the anesthetized thromboxane challenged PAH minipig after inhaled (nebulized) application (C-2.1). The class given is in vivo, Göttingen minipig. Conditions: inhaled 10 μg/kg. In outline:
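Anesthetized, ventilated Göttingen minipigs (2-6 kg) given continuous infusion (0.3-0.75 μg/kg/min) to raise mean PAP above 25 mmHg, dosing starting after a 30 min plateau. Compound in 1% DMSO/0.2% citric acid, pH 8, nebulized via Aeroneb Pro into the inspiratory arm (~7 min; stock 300 μg/kg). PAP by Swan-Ganz catheter, BP via carotid catheter.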

`O=C(O)CCCCN(CCc1ccccc1OCc1ccc(CCc2ccccc2)cc1)Cc1ccc(C(=O)O)cc1` [comparative example 1, 4-[((4Carboxybutyl)-{2-[(4-phenethylbenzyl)oxy]phenethyl}amino)methyl]benzoic acid] gave a fraction unbound in data set [1] of 0.0112. Moreover, the “% changes in BP vs baseline” value in data set [2] (0 min vs. start inhalation, listed as Cinaciguat) is 100% and 101%; in data set [2] (10 min vs. start inhalation, listed as Cinaciguat), 89% and 86%; in data set [2] (20 min vs. start inhalation, listed as Cinaciguat), 83% and 82%; in data set [2] (30 min vs. start inhalation), 82%; in data set [2] (40 min vs. start inhalation) it was 84%; in data set [2] (50 min vs. start inhalation, listed as Cinaciguat), 87% and 85%. For the same molecule, the “% changes in BP vs baseline” value in data set [2] (60 min vs. start inhalation, listed as Cinaciguat) was 91% and 87%; in data set [2] (70 min vs. start inhalation, listed as Cinaciguat) it was 94% and 88%; in data set [2] (80 min vs. start inhalation, listed as Cinaciguat), 95% and 90%; in data set [2] (90 min vs. start inhalation, listed as Cinaciguat) it was 99% and 92%; in data set [2] (−5 min vs. start inhalation, listed as Cinaciguat), 100% and 99%.
